Among the data in US12187742B2 (XRAD Therapeutics, Inc., priority 2018, dated 2025) are IC50 values, retold here.

Structures can show the parent of a compound that is named as a salt.

The target of one assay is ATM (Homo sapiens (Human), UniProt Q13315). The experiment in a line: ATM in Cell Western Assay (pKAP1 in etoposide-treated MCF-7 cells). The format is cell-based. Conditions: MCF-7 cells, etoposide 100 μM, 1 hr, pKAP1 readout. In short, it runs like this: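 Cells received compounds in a 10-dose, 3-fold series from a 1 μM final top concentration, then 100 μM etoposide, for 1 hr at 37° C. They were then fixed with paraformaldehyde and permeabilized with 0.1% Triton X-100. After immunostaining, plates were scanned on an infrared imager.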
Chain of ATM (Q13315 whole entry): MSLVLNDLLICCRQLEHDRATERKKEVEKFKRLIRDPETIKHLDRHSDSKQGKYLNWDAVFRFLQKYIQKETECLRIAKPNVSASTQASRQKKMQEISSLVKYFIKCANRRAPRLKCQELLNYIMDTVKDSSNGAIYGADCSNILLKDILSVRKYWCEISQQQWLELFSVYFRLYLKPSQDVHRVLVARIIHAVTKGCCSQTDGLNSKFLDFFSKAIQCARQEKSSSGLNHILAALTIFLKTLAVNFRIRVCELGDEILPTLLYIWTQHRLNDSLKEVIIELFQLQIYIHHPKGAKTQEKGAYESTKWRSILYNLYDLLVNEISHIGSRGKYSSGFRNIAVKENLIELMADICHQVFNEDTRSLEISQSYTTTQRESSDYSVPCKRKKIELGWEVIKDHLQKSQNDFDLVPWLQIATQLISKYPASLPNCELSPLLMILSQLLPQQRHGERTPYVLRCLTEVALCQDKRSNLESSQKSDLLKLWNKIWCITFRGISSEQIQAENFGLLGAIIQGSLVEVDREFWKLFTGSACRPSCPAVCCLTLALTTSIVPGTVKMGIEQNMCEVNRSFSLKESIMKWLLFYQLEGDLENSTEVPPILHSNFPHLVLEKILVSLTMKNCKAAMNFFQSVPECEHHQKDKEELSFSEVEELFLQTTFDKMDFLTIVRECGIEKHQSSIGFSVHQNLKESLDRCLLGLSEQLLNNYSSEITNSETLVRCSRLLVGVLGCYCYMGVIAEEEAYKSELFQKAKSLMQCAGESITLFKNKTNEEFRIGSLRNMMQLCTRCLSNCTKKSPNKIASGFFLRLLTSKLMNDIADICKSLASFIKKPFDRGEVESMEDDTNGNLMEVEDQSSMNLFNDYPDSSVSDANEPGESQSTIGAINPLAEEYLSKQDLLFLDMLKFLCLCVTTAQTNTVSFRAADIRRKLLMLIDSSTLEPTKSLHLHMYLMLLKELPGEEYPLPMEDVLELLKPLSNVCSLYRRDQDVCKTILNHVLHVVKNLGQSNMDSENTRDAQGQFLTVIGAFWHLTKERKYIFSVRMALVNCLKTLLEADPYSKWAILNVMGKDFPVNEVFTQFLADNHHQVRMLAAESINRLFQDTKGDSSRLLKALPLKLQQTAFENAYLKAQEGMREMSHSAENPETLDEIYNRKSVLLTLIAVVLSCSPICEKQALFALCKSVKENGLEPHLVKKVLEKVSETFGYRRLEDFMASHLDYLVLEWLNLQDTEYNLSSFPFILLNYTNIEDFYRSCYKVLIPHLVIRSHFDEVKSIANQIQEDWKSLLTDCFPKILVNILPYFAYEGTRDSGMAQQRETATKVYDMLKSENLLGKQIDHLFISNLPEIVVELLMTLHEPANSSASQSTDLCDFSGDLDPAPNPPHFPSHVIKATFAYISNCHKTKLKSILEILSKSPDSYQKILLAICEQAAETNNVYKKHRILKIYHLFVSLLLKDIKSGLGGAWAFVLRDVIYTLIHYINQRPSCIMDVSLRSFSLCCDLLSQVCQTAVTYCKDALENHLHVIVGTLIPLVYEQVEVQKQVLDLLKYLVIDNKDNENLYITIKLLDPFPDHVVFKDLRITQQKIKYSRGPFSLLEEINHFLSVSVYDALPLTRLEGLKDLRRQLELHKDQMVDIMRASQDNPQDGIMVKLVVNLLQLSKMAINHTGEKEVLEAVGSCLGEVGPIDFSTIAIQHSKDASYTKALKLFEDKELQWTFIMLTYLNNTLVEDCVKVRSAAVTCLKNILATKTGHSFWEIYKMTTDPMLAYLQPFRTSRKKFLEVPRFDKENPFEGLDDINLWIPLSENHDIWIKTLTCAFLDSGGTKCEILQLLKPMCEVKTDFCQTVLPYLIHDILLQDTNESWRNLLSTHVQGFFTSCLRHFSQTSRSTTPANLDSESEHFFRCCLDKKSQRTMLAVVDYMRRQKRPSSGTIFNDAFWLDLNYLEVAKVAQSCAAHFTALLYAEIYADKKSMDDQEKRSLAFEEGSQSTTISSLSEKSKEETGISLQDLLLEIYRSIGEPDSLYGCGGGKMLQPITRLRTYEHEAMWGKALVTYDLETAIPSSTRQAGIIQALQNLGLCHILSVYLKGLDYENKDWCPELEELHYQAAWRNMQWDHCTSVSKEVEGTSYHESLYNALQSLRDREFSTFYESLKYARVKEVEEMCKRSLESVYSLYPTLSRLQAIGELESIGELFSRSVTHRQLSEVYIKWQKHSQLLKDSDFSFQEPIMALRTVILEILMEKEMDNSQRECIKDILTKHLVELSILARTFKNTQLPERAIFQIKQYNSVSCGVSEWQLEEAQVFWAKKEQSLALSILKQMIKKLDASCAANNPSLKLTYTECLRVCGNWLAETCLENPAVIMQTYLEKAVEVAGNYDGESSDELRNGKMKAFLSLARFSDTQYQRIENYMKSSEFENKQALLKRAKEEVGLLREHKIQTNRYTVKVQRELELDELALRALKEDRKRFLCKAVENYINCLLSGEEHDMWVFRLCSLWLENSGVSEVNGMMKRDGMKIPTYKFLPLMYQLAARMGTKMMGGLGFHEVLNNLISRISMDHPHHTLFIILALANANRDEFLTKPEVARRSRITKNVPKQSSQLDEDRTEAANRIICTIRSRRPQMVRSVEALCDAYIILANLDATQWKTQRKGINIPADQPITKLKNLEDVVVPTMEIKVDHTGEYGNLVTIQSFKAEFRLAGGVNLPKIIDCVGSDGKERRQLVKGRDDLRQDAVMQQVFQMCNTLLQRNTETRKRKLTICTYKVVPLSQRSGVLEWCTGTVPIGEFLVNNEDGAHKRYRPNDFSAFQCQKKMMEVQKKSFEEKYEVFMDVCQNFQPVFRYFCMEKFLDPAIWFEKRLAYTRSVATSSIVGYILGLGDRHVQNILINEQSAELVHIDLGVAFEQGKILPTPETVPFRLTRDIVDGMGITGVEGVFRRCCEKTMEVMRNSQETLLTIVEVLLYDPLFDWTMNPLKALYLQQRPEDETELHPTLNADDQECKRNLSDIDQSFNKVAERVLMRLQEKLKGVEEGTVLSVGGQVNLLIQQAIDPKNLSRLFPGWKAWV
Consider `CN1C(=O)C2(CCC2)c2c1cnc1ccc(-c3cnc(N4CC(N5CCCCC5)C4)c(NS(C)(=O)=O)c3)cc21` [Example 321, N-(5-(3′-Methyl-2′-oxo-2′,3′-dihydrospiro[cyclobulane-1,1′-pyrrolo[2,3-c]quinolin]-8′-yl)-2-(3-(piperidin-1-yl)azetidin-1-yl)pyridin-3-yl)methanesulfonamide hydrochloride], for which the half-inhibitory concentration (IC50) (as a rule, the midpoint of a concentration-inhibition curve) lay within 1 to 100 nM.

Take `CN1C(=O)C2(CC2)c2c1cnc1ccc(-c3ccc4nccnc4c3)cc21` [Example 39, 3′-Methyl-8′-(quinoxalin-6-yl)spiro[cyclopropane-1,1′-pyrrolo[2,3-c]quinolin]-2′(3′-H)-one]: the IC50 was above 100 nM.

Take `CN1C(=O)C2(CC2)c2c1cnc1ccc(-c3cncc(C(C)(C)O)c3)cc21` [Example 25, 8′-(5-(2-Hydroxypropan-2-yl)pyridin-3-yl)-3 methylspiro[cyclopropane-1,1′-pyrrolo[2,3-c]quinolin]-2′(3′-H)-one]: the IC50 was above 100 nM.

Compound `CC(C)Nc1cc(-c2ccc3ncc4c(c3c2)C2(CC2)C(=O)N4C)cnc1OCCCN(C)C` [Example 34, 8′-(6-(3-(Dimethylamino)propoxy)-5-(isopropylamino)pyridin-3-yl)-3′-methylspiro[cyclopropane-1,1′-pyrrolo[2,3-c]quinolin]-2′(3′-H)-one] came in with a concentration for half-maximal inhibition (IC50) above 100 nM.

With `CN(C)CCCNc1ccc(-c2ccc3ncc4c(c3c2)C2(CC2)C(=O)N4C)cn1` [Example 94, 8′-(6-((3-(Dimethylamino)propyl)amino)pyridin-3-yl)-3′-methylspiro [cyclopropane-1,1′-pyrrolo[2,3-c]quinolin]-2′(3′-H)-one], the half-maximal inhibitory concentration (IC50) was in the range of 1 to 100 nM.

Consider `COc1ncc(-c2ccc3ncc4c(c3c2)C2(CC2)C(=O)N4C)cc1S(=O)(=O)c1ccccc1` [Example 36], for which the concentration for half-maximal inhibition (IC50) was above 100 nM.

`COc1ncc(-c2ccc3ncc(Nc4ccn(C)n4)c(=O)n3c2)cc1NS(=O)(=O)c1ccccc1` [Example 16, N-(2-Methoxy-5-(3-((1-methyl-1H-pyrazol-3-yl)amino)-4-oxo-4H-pyrido[1,2-a]pyrimidin-7-yl)pyridin-3-yl)benzenesulfonamide] registered an IC50 above 100 nM.

Compound `CN1C(=O)C2(CC2)c2c1cnc1ccc(-c3ccc4[nH]c(=O)ccc4c3)cc21` [Example 40] had a half-maximal inhibitory concentration (IC50) above 100 nM.

`Cc1ccc(S(=O)(=O)N(C)c2cc(-c3ccc4ncc5c(c4c3)C3(CCC3)C(=O)N5C)cnc2OCCCN2CCCCC2)cn1` [Example 191, N,6-Dimethyl-N-(5-(3′-methyl-2′-oxo-2′,3′-dihydrospiro [cyclobulane-1,1′-pyrrolo[2,3-c]quinolin]-8′-yl)-2-(3-(piperidin-1-yl)propoxy)pyridin-3-yl)pyridine-3-sulfonamide 2,2,2-trifluoroacetate]: the IC50 is above 100 nM.

With `CN1C(=O)C2(CCC2)c2c1cnc1ccc(-c3cnc(OCC(CO)N4CCCCC4)c(NS(C)(=O)=O)c3)cc21` (stereo not shown) [Example 284, N-(2-(3-Hydroxy-2-(piperidin-1-yl)propoxy)-5-(3′-methyl-2′-oxo-2′,3′-dihydrospiro[cyclobutane-1,1′-pyrrolo[2,3-c]quinolin]-8′-yl)pyridin-3-yl)methanesulfonamide], the half-maximal inhibitory concentration (IC50) was above 100 nM.

The compound `CNS(=O)(=O)c1cc(-c2ccc3ncc4c(c3c2)C2(CCC2)C(=O)N4C)cnc1OCCCN(C)C` [Example 267, 2-(3-(Dimethylamino)propoxy)-N-methyl-5-(3′-methyl-2′-oxo-2′,3′-dihydrospiro[cyclobutane-1,1′-pyrrolo[2,3-c]quinolin]-8′-yl) pyridine-3-sulfonamide] yielded an IC50 of 1 to 100 nM.

For the compound `COc1ccc2cc(-c3ccc4ncc5c(c4c3)C3(CC3)C(=O)N5C)ccc2n1` [Example 44, 8′-(2-Methoxyquinolin-6-yl)-3′-methylspiro [cyclopropane-1,1′-pyrrolo[2,3-c]quinolin]-2′(3′-H)-one], the concentration for half-maximal inhibition (IC50) is above 100 nM.

The same assay, now with this note: pKAP1 in etoposide-treated MCF-7 cells.
The compound `COCCN[C@H]1C[C@@]2(C1)C(=O)N(C)c1cnc3cc(F)c(-c4cnc(OCCNC(C)C)c(NS(C)(=O)=O)c4)cc3c12` [Example 474, trans-N-{5-(7′-Fluoro-3-((2-methoxyethyl)amino)-3′-methyl-2′-oxo-2′,3′-dihydrospiro[cyclobutane-1,1′-pyrrolo[2,3-c]quinolin]-8′-yl)-2-(2-(isopropylamino)ethoxy)pyridin-3-yl)methanesulfonamide] came in with a 50% inhibitory concentration (IC50) of 1 to 100 nM.

Compound `CC(C)NCCOc1ncc(-c2cc3c(cc2F)ncc2c3[C@]3(C[C@@H](COC(C)C)C3)C(=O)N2C)cc1NS(C)(=O)=O` [Example 411, trans-N-{5-(7′-Fluoro-3-(isopropoxymethyl)-3′-methyl-2′-oxo-2′,3′-dihydrospiro[cyclobutane-1,1′-pyrrolo[2,3-c]quinolin]-8′-yl)-2-(2-(isopropylamino)ethoxy)pyridin-3-yl)methanesulfonamide] gave an IC50 of 1 to 100 nM.

Compound `CC(C)NCCOc1ncc(-c2cc3c(cc2F)ncc2c3[C@]3(C[C@@H](C)C3)C(=O)N2C)cc1NS(C)(=O)=O` [Example 447, trans-N-(5-(7′-Fluoro-3,3′-dimethyl-2′-oxo-2′,3′-dihydrospiro[cyclobutane-1,1′-pyrrolo[2,3-c]quinolin]-8′-yl)-2-(2-(isopropylamino)ethoxy)pyridin-3-yl)methanesulfonamide] registered an IC50 of 1 to 100 nM.

Regarding `CC(C)NCCOc1ncc(-c2cc3c4c(cnc3cc2F)N(C)C(=O)C42CN(c3cccnc3)C2)cc1NS(C)(=O)=O` [Example 548, N-(5-(7′-Fluoro-3′-methyl-2′-oxo-1-(pyridin-3-yl)-2′,3′-dihydrospiro [azetidine-3,1′-pyrrolo[2,3-c]quinolin]-8′-yl)-2-(2-(isopropylamino)ethoxy)pyridin-3-yl)methanesulfonamide hydrochloride], the half-maximal inhibitory concentration (IC50) fell in the range of 1 to 100 nM.

`CC(C)NCCOc1ncc(-c2cc3c4c(cnc3cc2F)N(C)C(=O)C42CN(c3cccc(C(F)(F)F)c3)C2)cc1NS(C)(=O)=O` [Example 537, N-(5-(7′-Fluoro-3′-methyl-2′-oxo-1-(3-(trifluoromethyl)phenyl)-2′,3′-dihydrospiro[azetidine-3,1′-pyrrolo[2,3-c]quinolin]-8′-yl)-2-(2-(isopropylamino)ethoxy)pyridin-3-yl)methanesulfonamide] registered a 50% inhibitory concentration (IC50) of 1 to 100 nM.

As to `CC(C)NCCOc1ncc(-c2cc3c4c(cnc3cc2F)N(C)C(=O)C42CN(c3cncnc3)C2)cc1NS(C)(=O)=O` [Example 549, N-(5-(7′-Fluoro-3′-methyl-2′-oxo-1-(pyrimidin-5-yl)-2′,3′-dihydrospiro[azetidine-3,1′-pyrrolo[2,3-c]quinolin]-8′-yl)-2-(2-(isopropylamino)ethoxy)pyridin-3-yl)methanesulfonamide], the half-inhibitory concentration (IC50) was above 100 nM.

For `CNC[C@H]1C[C@]2(C1)C(=O)N(C)c1cnc3cc(F)c(-c4cnc(OCCNC(C)C)c(NS(C)(=O)=O)c4)cc3c12` [Example 454, cis-N-(5-(7′-Fluoro-3′-methyl-3-((methylamino)methyl)-2′-oxo-2′,3′-dihydrospiro[cyclobutane-1,1′-pyrrolo[2,3-c]quinolin]-8′-yl)-2-(2-(isopropylamino)ethoxy)pyridin-3-yl)methanesulfonamide], the half-inhibitory concentration (IC50) is above 100 nM.

Compound `CN(C)CCCOc1ncc(-c2ccc3ncc4c(c3c2)C2(CN(C(=O)OC(C)(C)C)C2)C(=O)N4C)cc1NS(C)(=O)=O` [Example 479, tert-Butyl 8′-(6-(3-(dimethylamino)propoxy)-5-(methylsulfonamido)pyridin-3-yl)-3′-methyl-2′-oxo-2′,3′-dihydrospiro[azetidine-3,1′-pyrrolo[2,3-c]quinoline]-1-carboxylate] gave a concentration for half-maximal inhibition (IC50) of 1 to 100 nM.

`CN(C)CCCOc1c(NS(C)(=O)=O)cc(-c2ccc3ncc4c(c3c2)C2(CCC2)C(=O)N4C)cc1C(=O)N(C)C` [Example 564, 2-(3-(Dimethylamino)propoxy)-N,N-dimethyl-5-(3′-methyl-2′-oxo-2′,3′-dihydrospiro[cyclobutane-1,1′-pyrrolo[2,3-c]quinolin]-8′-yl)-3-(methylsulfonamido)benzamide] returned an IC50 above 100 nM.

For the compound `CC(C)NCCOc1ncc(-c2cc3c4c(nnc3cc2F)N(C)C(=O)C42CCC2)cc1NS(C)(=O)=O` [Example 558, N-(5-(7′-Fluoro-3′-methyl-2′-oxo-2′,3′-dihydrospiro[cyclobutane-1,1′-pyrrolo [2,3-c]cinnolin]-8′-yl)-2-(2-(isopropylamino)ethoxy)pyridin-3-yl)methanesulfonamide], the half-inhibitory concentration (IC50) is above 100 nM.

Turning to `CC(C)NCCOc1ncc(-c2cc3c(cc2F)ncc2c3[C@]3(C[C@@H](N4CCCCC4)C3)C(=O)N2C)cc1NS(C)(=O)=O` [Example 470, trans-N-{5-(7′-Fluoro-3′-methyl-2′-oxo-3-(piperidin-1-yl)-2′,3′-dihydrospiro[cyclobutane-1,1′-pyrrolo[2,3-c]quinolin]-8′-yl)-2-(2-(isopropylamino)ethoxy)pyridin-3-yl)methanesulfonamide hydrochloride], the half-maximal inhibitory concentration (IC50) was 1 to 100 nM.

Compound `CC(C)CCN1CC2(C1)C(=O)N(C)c1cnc3cc(F)c(-c4cnc(OCCNC(C)C)c(NS(C)(=O)=O)c4)cc3c12` [Example 492, N-(5-(7′-Fluoro-1-isopentyl-3′-methyl-2′-oxo-2′,3′-dihydrospiro[azetidine-3,1′-pyrrolo[2,3-c]quinolin]-8′-yl)-2-(2-(isopropylamino)ethoxy)pyridin-3-yl)methanesulfonamide] returned a concentration for half-maximal inhibition (IC50) above 100 nM.

With `CC(C)NCCOc1ncc(-c2cc3c(cc2F)ncc2c3[C@]3(C[C@@H](Oc4ccccc4)C3)C(=O)N2C)cc1NS(C)(=O)=O` [Example 401, trans-N-(5-(7′-Fluoro-3′-methyl-2′-oxo-3-phenoxy-2′,3′-dihydrospiro[cyclobutane-1,1′-pyrrolo[2,3-c]quinolin]-8′-yl)-2-(2-(isopropylamino)ethoxy)pyridin-3-yl)methanesulfonamide], the IC50 lay in the range of 1 to 100 nM.
